Laboratory results from US20250179092A1, “PYRIDO[1,2-A]PYRIMIDIN-4-ONE DERIVATIVES” (Hoffmann-La Roche Inc., priority 2022, published 2025).

System: mutant HTT protein (mHTT)
Assay: Homogeneous Time Resolved Fluorescence (HTRF) assay for HTT lowering
Assay type: cell-based
Settings: reduction of mHTT in Huntington patient human cells (GENEAe020-A cell line), 48 hours incubation, mean from three replicates
Experimental: Homogeneous Time Resolved Fluorescence for HTT Lowering
The HTRF assay was adapted from Weiss et al. (Analytical Biochemistry Volume 395, Issue 1, 1 Dec. 2009, Pages 8-15 and Analytical Biochemistry Volume 410, 2011, Pages 304-306) to cells from GENEAe020-A cell line (https.//hpscreg.eu/cell-line/GENEAe020-A).
Compounds were tested for the effect of mutant HTT levels in Huntington patient human cells (GENEAe020-A cell line) using Homogeneous Time Resolved Fluorescence (HTRF) directed towards mutant HTT protein (mHTT). The GENEAe020-A cell line was derived by Genea Biocells from human blastocysts of HD donors. After assessing viability, cells were plated into 384 well collagen coated plates in growth media. Once cells adhered, media was removed and test compounds dissolved in DMSO were diluted with buffer solution and added to the adherent cells. Controls included experiments with no cells, DMSO with no compound, and Hsp90 inhibitor control. Cells were incubated with compounds and controls for 48 hours. Then, the cells were lysed and transferred to an assay plate containing HTRF labeled monoclonal antibodies developed by Paul Patterson (Ko et al., Brain Research Bulletin, Volume 56, Numbers 3 and 4, 2001, Pages 319-329) which recognize specific areas of the HTT protein. The terbium labeled “donor” antibody (2B7) binds to the N-terminus of the HTT protein and the Alexa488 labeled “acceptor” antibody (MW1) is specific for the polyglutamine region of the protein. Binding of the acceptor labeled antibody is more efficient for the extended polyglutamine repeats of mutant HTT protein which translates into a signal boost which enables the specific measurement of mutant HTT protein level. The HTRF donor and acceptor detection reagents were incubated with the cell lysate and the ratio between the signals of the two fluorophores is indicative of the relative quantities of mHTT.

| Compound | EC50 [nM] |
| --- | --- |
| Cc1cn2nc(-c3cc(=O)n4cc(C5CCNC6(CC6)C5)ccc4n3)cc(C)c2n1 (racemic) [Example 1, rac-7-(4-azaspiro[2.5]octan-7-yl)-2-(2,8-dimethylimidazo[1,2-b]pyridazin-6-yl)pyrido[1,2-a]pyrimidin-4-one] | 31 |
| COc1cc(-c2cc(=O)n3cc(C4CCNC5(CC5)C4)ccc3n2)nn2cc(C)nc12 (racemic) [Example 2, rac-7-(4-azaspiro[2.5]octan-7-yl)-2-(8-methoxy-2-methyl-imidazo[1,2-b]pyridazin-6-yl)pyrido[1,2-a]pyrimidin-4-one] | 21 |
| Cc1cn2nc(-c3cc(=O)n4cc(C5CCNC6(CC6)C5)ccc4n3)cc(C(F)(F)F)c2n1 (racemic) [Example 3, rac-7-(4-azaspiro[2.5]octan-7-yl)-2-[2-methyl-8-(trifluoromethyl)imidazo[1,2-b]pyridazin-6-yl]pyrido[1,2-a]pyrimidin-4-one] | 40 |
| Cc1nc2c(C)cc(-c3cc(=O)n4cc(C5CCNC6(CC6)C5)ccc4n3)nc2o1 (racemic) [Example 4, rac-7-(4-azaspiro[2.5]octan-7-yl)-2-(2,7-dimethyloxazolo[5,4-b]pyridin-5-yl)pyrido[1,2-a]pyrimidin-4-one] | 49 |
| O=c1cc(-c2ccc3nc(Cl)cn3n2)nc2ccc(C3CCNC4(CC4)C3)cn12 (racemic) [Example 5, rac-7-(4-azaspiro[2.5]octan-7-yl)-2-(2-chloroimidazo[1,2-b]pyridazin-6-yl)pyrido[1,2-a]pyrimidin-4-one] | 259 |
